Test results reported in patent US7491793B2 (priority 2003, dated 2009).

System: Lassa virus (Josiah strain)
Format: cell-based

NYSKYWYLNHTTTGR [SEQ ID NO:30]
inhibition of plaque formation by LasV: can inhibit plaque formation by LasV

GWTFWTLSDSEGKDTPGGY [SEQ ID NO:31]
inhibition of plaque formation by LasV: inhibited infection by LasV, but to a lesser extent
